In one series the test system is HCV. The conditions noted are these: cited from earlier work.
The conditions of series [1]: extended dosing of the combination regimens (interferon and ribavirin); cited from earlier work.
A further series concerns HCV replicon genotype 1a. Description: HCV Replicon Luciferase Reporter Assay (LE Assay), genotype 1a replicon. Type of series: cell-based, HCV genotype 1a. The conditions noted are these: Hepatitis C virus, read-out: LE NeoLuc EC50. The method, then: The HCV replicon luciferase assay was developed to monitor the inhibitory effects of compounds described in the disclosure on HCV viral replication. Utilization of a replicon luciferase reporter assay was first described by Krieger et al (Krieger N, Lohmann V, and Bartenschlager R, J. Virol. 75(10):4614-4624 (2001)). HUH-7 cells, constitutively expressing the HCV replicon, were grown in Dulbeccors Modified Eagle Media (DMEM) (Gibco-BRL) containing 10% Fetal calf serum (FCS) (Sigma) and 1 mg/ml G418 (Gibco-BRL). Compounds were serially diluted 3 folds in DMSO for a twenty-point titration and subsequently transferred to sterile 384-well tissue-culture treated plates (Coming cat #3571). The plates were then seeded with 50 μl of cells at a density of 3.0×10^3 cells/well in DMEM containing 4% FCS (final DMSO concentration at 0.5%). After 3 days incubation at 37° C., cells were analyzed for Renilla Luciferase activity using the EnduRen as substrate (Promega cat #E6485). The EnduRen substrate was diluted in DMEM and then added to the plates to a final concentration of 7.5 μM. The plates were incubated for 2 hrs at 37° C. and then read immediately for 30 seconds with Viewlux Imager (PerkinElmer) using a luminescence program. To assess cytotoxicity of compounds, CC50 values were generated by multiplexing the EnduRen-containing plates with Cell Titer-Blue (Promega, cat #G8082). 3 μl of Cell-Titer Blue was added to each well and incubated for 8 hrs at 37° C. The fluorescence signal from each well was read, with an excitation wavelength at 525/10 nm and an emission wavelength of 598/10 nm, using the Viewlux Imager.

In another series the target is T1, HCV NS5B (Hepatitis C virus genotype 1b, UniProt Q9WMX2).
T1 construct: The protein was expressed with an 18 amino acid C-terminal truncation to enhance the solubility; made in house; host or cells: E. coli BL21(DE3)
T1 sequence (Q9WMX2 2420-2992): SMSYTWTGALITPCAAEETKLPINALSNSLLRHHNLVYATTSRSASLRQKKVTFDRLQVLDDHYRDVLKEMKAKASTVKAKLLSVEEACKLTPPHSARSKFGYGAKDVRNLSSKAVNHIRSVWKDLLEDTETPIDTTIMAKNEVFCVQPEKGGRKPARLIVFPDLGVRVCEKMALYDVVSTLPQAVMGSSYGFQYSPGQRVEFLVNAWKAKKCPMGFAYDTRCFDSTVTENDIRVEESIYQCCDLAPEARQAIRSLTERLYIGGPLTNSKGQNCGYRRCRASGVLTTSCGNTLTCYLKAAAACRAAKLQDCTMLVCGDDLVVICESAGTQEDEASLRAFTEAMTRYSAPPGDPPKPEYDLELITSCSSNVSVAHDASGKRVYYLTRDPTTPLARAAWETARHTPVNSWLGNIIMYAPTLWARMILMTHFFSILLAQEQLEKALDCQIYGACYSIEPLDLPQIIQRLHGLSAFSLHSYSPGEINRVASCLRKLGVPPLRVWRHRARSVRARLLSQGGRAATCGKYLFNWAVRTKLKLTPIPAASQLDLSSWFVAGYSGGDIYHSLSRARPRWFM
Description: HCV NS5B RdRp enzyme assay. The conditions noted are these: Table 1; HCV NS5B RdRp genotype 1b. It counts as biochemical. Here is the method:
HCV NS5B RdRp cloning, expression, and purification. The cDNA encoding the NS5B protein of HCV, genotype 1b, was cloned into the pET21a expression vector. The protein was expressed with an 18 amino acid C-terminal truncation to enhance the solubility. The E. coli competent cell line BL21(DE3) was used for expression of the protein. Cultures were grown at 37° C. for ˜4 hours until the cultures reached an optical density of 2.0 at 600 nm. The cultures were cooled to 20° C. and induced with 1 mM IPTG. Fresh ampicillin was added to a final concentration of 50 μg/ml and the cells were grown overnight at 20° C.
Cell pellets (3L) were lysed for purification to yield 15-24 mgs of purified NS5B. The lysis buffer consisted of 20 mM Tris-HCl, pH 7.4, 500 mM NaCl, 0.5% triton X-100, 1 mM DTT, 1 mM EDTA, 20% glycerol, 0.5 mg/ml lysozyme, 10 mM MgCl2, 15 ug/ml deoxyribonuclease I, and Complete TM protease inhibitor tablets (Roche). After addition of the lysis buffer, frozen cell pellets were resuspended using a tissue homogenizer. To reduce the viscosity of the sample, aliquots of the lysate were sonicated on ice using a microtip attached to a Branson sonicator. The sonicated lysate was centrifuged at 100,000×g for 1 hr at 4° C. and filtered through a 0.2 μm filter unit (Corning).
The protein was purified using three sequential chromatography steps: Heparin sepharose CL-6B, polyU sepharose 4B, and Hitrap SP sepharose (Pharmacia). The chromatography buffers were identical to the lysis buffer but contained no lysozyme, deoxyribonuclease I, MgCl2 or protease inhibitor and the NaCl concentration of the buffer was adjusted according to the requirements for charging the protein onto the column. Each column was eluted with a NaCl gradient which varied in length from 5-50 column volumes depending on the column type. After the final chromatography step, the resulting purity of the enzyme is >90% based on SDS-PAGE analysis. The enzyme was aliquoted and stored at −80° C.
Standard HCV NS5B RdRp enzyme assay. HCV RdRp genotype 1b assays were run in a final volume of 60 μl in 96 well plates (Costar 3912). The assay buffer is composed of 20 mM Hepes, pH 7.5, 2.5 mM KCl, 2.5 mM MgCl2, 1 mM DTT, 1.6 U RNAse inhibitor (Promega N2515), 0.1 mg/ml BSA (Promega R3961), and 2% glycerol. All compounds were serially diluted (3-fold) in DMSO and diluted further in water such that the final concentration of DMSO in the assay was 2%. HCV RdRp genotype 1b enzyme was used at a final concentration of 28 nM. A polyA template was used at 6 nM, and a biotinylated oligo-dT12 primer was used at 180 nM final concentration. Template was obtained commercially (Amersham 27-4110). Biotinylated primer was prepared by Sigma Genosys. 3H-UTP was used at 0.6 μCi (0.29 μM total UTP). Reactions were initiated by the addition of enzyme, incubated at 30° C. for 60 min, and stopped by adding 25 μl of 50 mM EDTA containing SPA beads (4 μg/μl, Amersham RPNQ 0007). Plates were read on a Packard Top Count NXT after >1 hr incubation at room temperature.
Modified HCV NS5B RdRp enzyme assay. A modified enzyme assay was performed essentially as described for the standard enzyme assay except for the following: The biotinylated oligo dT12 primer was precaptured on streptavidin-coated SPA beads by mixing primer and beads in assay buffer and incubating at room temperature for one hour. Unbound primer was removed after centrifugation. The primer-bound beads were resuspended in 20 mM Hepes buffer, pH 7.5 and used in the assay at final concentrations of 20 nM primer and 0.67 μg/μl beads. Order of addition in the assay: enzyme (14 nM) was added to diluted compound followed by the addition of a mixture of template (0.2 nM), 3H-UTP (0.6 μCi, 0.29 μM), and primer-bound beads, to initiate the reaction; concentrations given are final. Reactions were allowed to proceed for 4 hours at 30° C.
IC50 values for compounds were determined using seven different [I]. […]

pEC50, pIC50: −log10 of the molar value.

Consider 5 molecules from patent US8143244B2, “Cyclopropyl fused indolobenzazepine HCV NS5B inhibitors” (Bristol-Myers Squibb Company, priority 2009, dated 2012).

Take `CNC(=O)c1c(-c2ccc(F)cc2)oc2cc(N(CCO)S(C)(=O)=O)c(C3CC3)cc12` [HCV-796]: in the series with HCV (single agent: transient decrease then rebound, more robust drop combined with interferon and ribavirin), the “HCV RNA levels in patients” value is given as “showed an ability to reduce HCV RNA levels in patients”. For the same molecule, the hepatic toxicity result in series [1] was “hepatic toxicity observed”.
alpha-interferon and ribavirin: in the series on HCV (HCV therapy), the “sustained efficacy in patients” value is reported as 40 % of patients.
Regarding `COc1ccc2c(c1)[C@@H]1C[C@]1(C(=O)N1CC34COCC3(C1)CN(S(=O)(=O)C(C)C)C4)Cn1c-2c(C2CCCCC2)c2ccc(C(=O)NS(=O)(=O)C(C)C)cc21` (stereo partly drawn), the negative logarithm of the EC50 (pEC50) in the series on HCV replicon genotype 1a was 6.30 to 8.72. In addition, the pIC50 against HCV NS5B is 6.30 to 8.72.
As to `COc1ccc2c(c1)[C@@H]1C[C@]1(C(=O)N1CC34CCC3(CN(C(=O)N3CCOCC3)C4)C1)Cn1c-2c(C2CCCCC2)c2ccc(C(=O)NS(=O)(=O)N(C)C)cc21` (stereo partly drawn), the pEC50 in the series on HCV replicon genotype 1a is 6.30 to 8.72. The pIC50 at HCV NS5B was 6.30 to 8.72.
Take `COc1ccc2c(c1)[C@@H]1C[C@]1(C(=O)N1CC34CCC3(CN(CC(F)(F)F)C4)C1)Cn1c-2c(C2CCCCC2)c2ccc(C(=O)NS(=O)(=O)C(C)C)cc21` (stereo partly drawn): the pEC50 with HCV replicon genotype 1a was 6.30 to 8.72. The molecule also had a negative-log IC50 (pIC50) on HCV NS5B of 6.30 to 8.72.
